Experimental data reported in ChEMBL document CHEMBL5506074, “Discovery and Optimization of Tetrahydroisoquinoline Derivatives To Enhance Lysosome Biogenesis as Preclinical Candidates for the Treatment of Alzheimer's Disease” (J Med Chem, 2024).
Active and inactive are the calls of the source. No cut-off for these calls is given here.

Key:
[1] = Induction of TFEB nuclear translocation in human HeLa cells expressing EGFP at 10 uM measured at 3 hrs by fluorescence microscopic analysis; type: functional
[2] = Induction of TFEB nuclear translocation in human HeLa cells expressing EGFP at 10 uM measured at 6 hrs by fluorescence microscopic analysis; type: functional
[3] = Induction of TFEB nuclear translocation in human HeLa cells expressing EGFP at 30 uM measured at 3 hrs by fluorescence microscopic analysis; type: functional
[4] = Induction of TFEB nuclear translocation in human HeLa cells expressing EGFP at 30 uM measured at 6 hrs by fluorescence microscopic analysis; type: functional
HeLa [5] = assay: Cytotoxicity against human HeLa cells at 30 uM; type: toxicity, cell-based
[6] = AUC (0 to t) in ICR mouse at 5 mg/kg, iv measured upto 24 hrs by LC-MS/MS analysis; type: ADME, organism-based; settings: ICR, in vivo
HeLa [7] = assay: Induction of lysosome biogenesis in human HeLa cells assessed as increase in number of acidified lysosomes at 10 uM incubated for 24 hrs by LysiTracker red staining based flow cytometry analysis; type: functional, cell-based
HeLa [8] = assay: Upregulation of LAMP1 mRNA expression in human HeLa cells at 10 uM incubated for 24 hrs by qRT-PCR analysis; type: functional, cell-based
HeLa [9] = assay: Upregulation of HEXA mRNA expression in human HeLa cells at 10 uM incubated for 24 hrs by qRT-PCR analysis; type: functional, cell-based
HeLa [10] = assay: Upregulation of CTSD mRNA expression in human HeLa cells at 10 uM incubated for 24 hrs by qRT-PCR analysis; type: functional, cell-based
HeLa [11] = assay: Upregulation of CTSF mRNA expression in human HeLa cells at 10 uM incubated for 24 hrs by qRT-PCR analysis; type: functional, cell-based
HeLa [12] = assay: Upregulation of LC3B mRNA expression in human HeLa cells at 10 uM incubated for 24 hrs by qRT-PCR analysis; type: functional, cell-based
HeLa [13] = assay: Upregulation of OPTN mRNA expression in human HeLa cells at 10 uM incubated for 24 hrs by qRT-PCR analysis; type: functional, cell-based
HeLa [14] = assay: Upregulation of p62 mRNA expression in human HeLa cells at 10 uM incubated for 24 hrs by qRT-PCR analysis; type: functional, cell-based
HeLa [15] = assay: Upregulation of […] mRNA expression in human HeLa cells at 10 uM incubated for 24 hrs by qRT-PCR analysis; type: functional, cell-based
HeLa [16] = assay: Upregulation of ATG2A mRNA expression in human HeLa cells at 10 uM incubated for 24 hrs by qRT-PCR analysis; type: functional, cell-based
HeLa [17] = assay: Upregulation of GLA mRNA expression in human HeLa cells at 10 uM incubated for 24 hrs by qRT-PCR analysis; type: functional, cell-based
HeLa [18] = assay: Upregulation of Atg16L1 mRNA expression in human HeLa cells at 10 uM incubated for 24 hrs by qRT-PCR analysis; type: functional, cell-based
HeLa [19] = assay: Upregulation of UVRAG mRNA expression in human HeLa cells at 10 uM incubated for 24 hrs by qRT-PCR analysis; type: functional, cell-based
HeLa [20] = assay: Upregulation of LAMP1 mRNA expression in TFEB knockout human HeLa cells at 10 uM incubated for 24 hrs by qRT-PCR analysis; type: functional, cell-based
HeLa [21] = assay: Upregulation of HEXA mRNA expression in TFEB knockout human HeLa cells at 10 uM incubated for 24 hrs by qRT-PCR analysis; type: functional, cell-based
HeLa [22] = assay: Upregulation of CTSD mRNA expression in TFEB knockout human HeLa cells at 10 uM incubated for 24 hrs by qRT-PCR analysis; type: functional, cell-based
HeLa [23] = assay: Upregulation of CTSF mRNA expression in TFEB knockout human HeLa cells at 10 uM incubated for 24 hrs by qRT-PCR analysis; type: functional, cell-based
HeLa [24] = assay: Upregulation of LC3B mRNA expression in TFEB knockout human HeLa cells at 10 uM incubated for 24 hrs by qRT-PCR analysis; type: functional, cell-based
HeLa [25] = assay: Upregulation of OPTN mRNA expression in TFEB knockout human HeLa cells at 10 uM incubated for 24 hrs by qRT-PCR analysis; type: functional, cell-based
HeLa [26] = assay: Upregulation of p62 mRNA expression in TFEB knockout human HeLa cells at 10 uM incubated for 24 hrs by qRT-PCR analysis; type: functional, cell-based
HeLa [27] = assay: Upregulation of […] mRNA expression in TFEB knockout human HeLa cells at 10 uM incubated for 24 hrs by qRT-PCR analysis; type: functional, cell-based
HeLa [28] = assay: Upregulation of ATG2A mRNA expression in TFEB knockout human HeLa cells at 10 uM incubated for 24 hrs by qRT-PCR analysis; type: functional, cell-based
HeLa [29] = assay: Upregulation of GLA mRNA expression in TFEB knockout human HeLa cells at 10 uM incubated for 24 hrs by qRT-PCR analysis; type: functional, cell-based
HeLa [30] = assay: Upregulation of Atg16L1 mRNA expression in TFEB knockout human HeLa cells at 10 uM incubated for 24 hrs by qRT-PCR analysis; type: functional, cell-based
HeLa [31] = assay: Upregulation of UVRAG mRNA expression in TFEB knockout human HeLa cells at 10 uM incubated for 24 hrs by qRT-PCR analysis; type: functional, cell-based
[32] = target: Cyclin-dependent kinase 9 (Homo sapiens) (UniProt P50750); assay: Inhibition of CDK9 in human SH-SY5Y cells assessed as decrease in Rpb1 phosphorylation at 10 uM incubated for 6 hrs by immunoblotting analysis; type: cell-based
Cyclin-dependent kinase 9 (Homo sapiens), sequence (P50750 whole entry): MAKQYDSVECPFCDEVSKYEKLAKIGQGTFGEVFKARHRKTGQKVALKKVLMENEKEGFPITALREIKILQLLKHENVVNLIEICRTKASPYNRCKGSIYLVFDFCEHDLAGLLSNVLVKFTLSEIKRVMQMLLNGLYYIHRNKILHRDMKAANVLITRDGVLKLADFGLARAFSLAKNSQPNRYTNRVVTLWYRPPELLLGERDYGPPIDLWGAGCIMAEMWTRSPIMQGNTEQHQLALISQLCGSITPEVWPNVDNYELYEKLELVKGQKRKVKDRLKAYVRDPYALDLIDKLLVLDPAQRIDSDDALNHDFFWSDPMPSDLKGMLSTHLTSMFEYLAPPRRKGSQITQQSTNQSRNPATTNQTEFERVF

HeLa [33] = assay: Cytotoxicity against human HeLa cells assessed as effect on cell viability at 10 uM incubated for 24 hrs; type: functional, cell-based
SH-SY5Y = assay: Cytotoxicity against human SH-SY5Y cells assessed as effect on cell viability at 10 uM incubated for 24 hrs; type: functional, cell-based
[34] = tested on: Primary neocortical neuron; assay: Cytotoxicity against mouse Primary neocortical neuron cells assessed as effect on cell viability at 10 uM incubated for 24 hrs; type: functional, cell-based
HeLa [35] = assay: Induction of cell cycle arrest in human HeLa cells assessed as effect on LAMP1 level at 10 uM incubated for 12 hrs by qRT-PCR analysis; type: functional, cell-based
HeLa [36] = assay: Induction of cell cycle arrest in human HeLa cells assessed as effect on CDK4 level at 10 uM incubated for 12 hrs by qRT-PCR analysis; type: functional, cell-based
HeLa [37] = assay: Induction of cell cycle arrest in human HeLa cells assessed as effect on CDK7 level at 10 uM incubated for 12 hrs by qRT-PCR analysis; type: functional, cell-based
HeLa [38] = assay: Induction of cell cycle arrest in human HeLa cells assessed as effect on p21 level at 10 uM incubated for 12 hrs by qRT-PCR analysis; type: functional, cell-based
[39] = Volume of distribution at steady state in ICR mouse measured upto 24 hrs by LC-MS/MS analysis; type: ADME; settings: in vivo, read-out: Vdss

`COc1cc2c(cc1O)CCN(CC1CCOCC1)C2CCc1c[nH]c2ccccc12` (centres undefined) gave an Activity [1] of 20%, an Activity [2] of 20% and an Activity [3] of 70%. For the same compound, the Activity [4] was 80% and the Activity (HeLa [5]) was “Toxic”.
`COc1cc2c(cc1OC)C(CCc1c[nH]c3ccc(O)cc13)N(CC1CCOCC1)CC2` (centres undefined) gave an Activity [1] of 25%, an Activity [2] of 34% and an Activity [3] of 85%. The Activity [4] was 88% and the Activity (HeLa [5]) was “Toxic”.
For `COc1ccc2[nH]cc(CCC3c4cc(OC)c(OC)cc4CCN3CC3CCOCC3)c2c1` (centres undefined), the Activity [1] was 74%, the Activity [2] was 76% and the Activity [3] was 96%. The Activity [4] was 98%, the AUC(0-t) at 24 h [6] was 21.5 ng·h/mL and the Activity (HeLa [7]) was “Active”. The Activity (HeLa [8]) was “Active”, the Activity (HeLa [9]) was “Active” and the Activity (HeLa [10]) was “Active”. For the same compound, the Activity (HeLa [11]) was “Active”, the Activity (HeLa [12]) was “Active” and the Activity (HeLa [13]) was “Active”. For the same compound, the Activity (HeLa [14]) was “Active”, the Activity (HeLa [15]) was “Active” and the Activity (HeLa [16]) was “Active”. The Activity (HeLa [17]) was “Active”, the Activity (HeLa [18]) was “Active” and the Activity (HeLa [19]) was “Active”. The Activity (HeLa [20]) was “Active”, the Activity (HeLa [21]) was “Active” and the Activity (HeLa [22]) was “Active”. For the same compound, the Activity (HeLa [23]) was “Active”, the Activity (HeLa [24]) was “Active” and the Activity (HeLa [25]) was “Active”. The Activity (HeLa [26]) was “Active”, the Activity (HeLa [27]) was “Active” and the Activity (HeLa [28]) was “Active”. The Activity (HeLa [29]) was “Active”, the Activity (HeLa [30]) was “Active” and the Activity (HeLa [31]) was “Active”. For the same compound, the inhibition [32] was “Active”, the Activity (HeLa [33]) was “Active” and the Activity (SH-SY5Y) was “Active”. The Activity [34] was “Active”, the Activity (HeLa [35]) was “inactive” and the Activity (HeLa [36]) was “inactive”. For the same compound, the Activity (HeLa [37]) was “inactive”, the Activity (HeLa [38]) was “inactive” and the Vd [39] was 97.5 L/kg.
With `CN1CCC(CN2CCc3cc4c(cc3C2CCc2c[nH]c3ccccc23)OCO4)CC1` (centres undefined) the Activity [1] was 30%, the Activity [2] was 40% and the Activity [3] was 80%. The Activity [4] was 81% and the Activity (HeLa [5]) was “Toxic”.
`c1cnc2[nH]cc(CCC3NCCc4cc5c(cc43)OCO5)c2c1` (centres undefined) showed an Activity [1] of 30%, an Activity [2] of 30% and an Activity [3] of 70%. The Activity [4] was 70% and the Activity (HeLa [5]) was “Toxic”.
